{
  "source": "ChEMBL document CHEMBL5505987",
  "about": "(Eur J Med Chem, 2024)",
  "type_in_all_cases": "functional, cell-based",
  "key": {"MDA-MB-231": {"tested_on": "MDA-MB-231", "assay": "Cytotoxicity against human MDA-MB-231 cells assessed as cell viability by MTT assay"}, "MCF7": {"tested_on": "MCF7", "assay": "Cytotoxicity against human MCF7 cells assessed as cell viability by MTT assay"}, "HeLa": {"tested_on": "HeLa", "assay": "Cytotoxicity against human HeLa cells assessed as cell viability by MTT assay"}, "A549": {"tested_on": "A549", "assay": "Cytotoxicity against human A549 cells assessed as cell viability by MTT assay"}, "4T1": {"tested_on": "4T1", "assay": "Cytotoxicity against mouse 4T1 cells assessed as cell viability by MTT assay"}},
  "note": "Where a name gives a salt, the structure may show the parent alone.",
  "data": [
    {"smiles": "O=C1C[C@H](c2ccccc2)Oc2cc(O)c([C@H](/C=C/C[C@@H](O)CCc3ccccc3)c3ccccc3)c(O)c21", "values": [
      {"measurement": "IC50", "setting": "MDA-MB-231", "value": 3.45, "unit": "µM"},
      {"measurement": "IC50", "setting": "MCF7", "value": 12.5, "unit": "µM"},
      {"measurement": "IC50", "setting": "HeLa", "value": 1.58, "unit": "µM"},
      {"measurement": "IC50", "setting": "A549", "value": 5.59, "unit": "µM"}
    ]},
    {"smiles": "COc1cccc2c1C(=O)c1c(O)c3c(c(O)c1C2=O)C[C@@](O)(C(=O)CO)C[C@@H]3O[C@H]1C[C@H](N)[C@H](O)[C@H](C)O1", "note": "[DOXORUBICIN HYDROCHLORIDE]", "values": [
      {"measurement": "IC50", "setting": "4T1", "value": 2.4, "unit": "µM"}
    ]}
  ]
}
